Assay results: patent US20230047766A1, “MEDICAL DEVICE, THERAPEUTIC METHOD, AND DIAGNOSTIC METHODS FOR THE TREATMENT AND PREVENTION OF VASOSPASM” (Sylvian Inc., priority 2020, published 2023)
Blank lines part the entries; values can stand above or below the compound they belong to.

Experiments:
rats = test: intrathecal (IT) administration to rats: Evans blue distribution and maximum dose volume of saline for 30 minutes; settings: rat, in vivo
Protocol: A first experiment was conducted to establish a procedure of intrathecal (IT) administration to rats to determine the maximum dose volume by IT administration of saline for 30 minutes. An approximately 30 μL of 1.0% Evans blue solution was administered to 6 anesthetized rats via a catheter placed in the subarachnoid space in the cisternal magna. After administration, the animals were necropsied, and the central nervous system (CNS) including the brain and cervical spinal cord were macroscopically observed to verify the distribution of Evans blue solution. In addition, 0.125, 0.25, 0.5, and 1.0 mL of saline, which is considered to be respectively approximately ½, equal, 2-fold, and 4-fold of a total volume of CSF in rats, was administered to 1 or 3 unanesthetized rats per dose volume. Saline was administered for 30 minutes using an infusion pump. Clinical signs were observed during the dosing and until 1 hour after dosing. The animals were necropsied on the next day of dosing and the CNS were macroscopically observed.

dogs = test: intrathecal (IT) administration to dogs: Evans blue distribution and maximum dose volume of saline for 30 minutes; assay type: in vivo; settings: anesthetized dogs, approx. 1 mL of 0.5% solution, catheter near the bregma
Protocol: A second experiment was conducted to establish a procedure of IT administration to dogs to determine the maximum dose volume by IT administration of saline for 30 minutes. An approximately 1 mL of 0.5% Evans blue solution was administered to 4 anesthetized dogs via a catheter placed in the subarachnoid space near the bregma. After the administration, the animals were necropsied, and the CNS was macroscopically observed to verify the distribution of the Evans blue solution. In addition, 8 or 4 mL of saline, which is considered to be respectively approximately […] of a total volume of CSF, was administered to 6 unanesthetized dogs under a restrained condition. Saline was administered during the dosing and until 1 hour after dosing. The animals were necropsied on the next day of dosing and the CNS were macroscopically observed.

ET-1 = settings: intravenous; clinical trial databases; cited from earlier work
[1] = solubility of trehalose in water (saturated trehalose solution); assay type: physicochemical; settings: 20° C.
Protocol: FIGS. 4A-4G are graphs showing simulations of trehalose concentrations in human CSF to determine clinical dose regimens. The simulations assume that a CSF volume of a human is approximately 140 mL and that the CSF exchange rate is approximately […]. […] In the simulations, the trehalose is administered by a bolus injection, and is equally distributed in the CSF immediately after the injection. For the simulations below, a saturated trehalose solution was prepared by dissolving 68.9 g of trehalose per 100 g of water at 20° C.
FIG. 4A is a graph 400 showing a simulation of trehalose concentration 410 in human CSF to determine a clinical dose regimen. In this example simulation, 9.8 g of trehalose was estimated to be required to achieve a 7 wt % trehalose concentration in the CSF immediately after injection.

[2] = test system: vasospasm associated with SAH; settings: animal studies; high concentrations (~7%) in cranial ventricles; cited from earlier work

Structure (SMILES): Cc1cc(-c2ccc(/N=N/c3ccc4c(S(=O)(=O)O)cc(S(=O)(=O)O)c(N)c4c3O)c(C)c2)ccc1/N=N/c1ccc2c(S(=O)(=O)O)cc(S(=O)(=O)O)c(N)c2c1O [Evans blue solution, Evans blue]
- distribution after IT administration (macroscopic observation) (rats): distributed to the subarachnoid space of the cisterna magna, the bottom of the brain, and the cervical spinal cord in all animals
- distribution after IT administration (macroscopic observation) (dogs): distributed to the subarachnoid space of the whole cerebral cortex

Structure (SMILES): COc1ccccc1Oc1c(NS(=O)(=O)c2ccc(C)cn2)nc(-c2ccnc(-c3nnn[nH]3)c2)nc1OCCO [Clozasentan]
- effect on vasospasm (ET-1): reversal of vasospasms in large arteries

- trehalose dissolved for a saturated solution [1]: 68.9 g per 100 g of water
Structure (SMILES): OC[C@H]1O[C@H](O[C@H]2O[C@H](CO)[C@@H](O)[C@H](O)[C@H]2O)[C@H](O)[C@@H](O)[C@@H]1O [trehalose]
- effect on inflammatory cascade and vasospasm associated with SAH [2]: significant inhibition of the inflammatory cascade and vasospasm
